Source: patent US12570675B2, “Boronic acid compounds” (LG CHEM, LTD., priority 2020, dated 2026)

Legend:
[1] = target: Proteasome caspase-like activity (S26 protein from RPMI8226 cells) (Homo sapiens (Human), UniProt P28072); assay: Proteasome caspase-like activity inhibition (Z-Leu-Leu-Glu-AMC fluorogenic substrate, RPMI8226 cell extract); type: biochemical; conditions: S26 protein from RPMI8226 cell extract 2 ug/well, substrate 20 uM, 37° C., 90 minutes
Procedure: The abilities to inhibit the proteasome activity of the compounds described in the Examples of the present invention and boronic acid drugs were evaluated as follows.
RPMI8226 cells, which is a multiple myeloma cell line, were cultured and then separated by a centrifuge, and washed twice with phosphate buffered saline (PBS). 20 mM of a tris-HCl (pH 8.0) buffer solution was added to the washed cells, and the cells were disrupted by a homogenizer and centrifuged to obtain S26 protein from the supernatant. Suc-Leu-Leu-Val-Tyr-AMC, for a fluorogenic substrate for the chymotrypsin-like activity of the proteasome, and Z-Leu-Leu-Glu-AMC, for a fluorogenic substrate for the caspase-like activity, were purchased from Calbiochem, EMD Millipore and used. Into each well of a 96-well plate (opaque, black round bottom), 20 ul of the S26 protein (final RPMI8226 cell extract concentration: 2 ug/well), 10 ul of S26 proteasome inhibitor serially diluted from 10 uM (final DMSO concentration: 0.5%), and 20 ul of the fluorogenic substrate for the proteasome chymotrypsin-like or caspase-like activity (final concentration: 20 uM) were added and mixed and allowed to react in a 37° C. incubator for 90 minutes. The fluorescence of the fluorogenic substrate was measured by FlexStation II Fluorometer (Molecular Devices). The fluorescence inhibited by the compound diluted at each concentration was measured as the relative percentage value for the amount obtained from the treatment only with the S26 protein and the fluorogenic substrate. IC50 (inhibitory concentration 50) was expressed in terms of a concentration that inhibits 50% of the maximum fluorescence induced by the fluorogenic substrate.

[2] = target: Proteasome chymotrypsin-like activity (S26 protein from RPMI8226 cells) (Homo sapiens, UniProt P28074); type: biochemical; conditions: S26 protein from RPMI8226 cell extract 2 ug/well, substrate 20 uM, 37° C., 90 minutes; read-out: Proteasome chymotrypsin-like activity inhibition IC50
Sequence of Proteasome chymotrypsin-like activity (S26 protein from RPMI8226 cells) (P28074 60-263 limits assumed): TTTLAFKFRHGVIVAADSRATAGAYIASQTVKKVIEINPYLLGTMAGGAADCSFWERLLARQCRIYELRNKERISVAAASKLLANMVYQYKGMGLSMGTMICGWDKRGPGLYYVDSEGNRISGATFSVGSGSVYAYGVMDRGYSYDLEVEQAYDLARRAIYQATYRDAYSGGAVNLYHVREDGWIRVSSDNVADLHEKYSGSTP
Method in brief: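 S26 proteasome fraction from homogenized RPMI8226 myeloma cells in 20 mM Tris-HCl pH 8.0 (2 ug extract/well) incubated 90 min at 37 °C with compound serially diluted from 10 uM (0.5% DMSO).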

Sequence of Proteasome caspase-like activity (S26 protein from RPMI8226 cells) (P28072 whole entry): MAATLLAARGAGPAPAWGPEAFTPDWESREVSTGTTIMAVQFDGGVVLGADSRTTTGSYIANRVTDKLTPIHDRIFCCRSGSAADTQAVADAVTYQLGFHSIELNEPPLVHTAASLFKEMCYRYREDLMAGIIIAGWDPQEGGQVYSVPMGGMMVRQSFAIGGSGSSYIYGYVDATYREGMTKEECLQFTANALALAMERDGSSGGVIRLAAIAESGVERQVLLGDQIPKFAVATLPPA

Row | Compound | IC50 [1] [nM] | IC50 [2] [nM]
1 | CC(C)C[C@H](NC(=O)C1(Cc2ccccc2)CC(CNC(=O)c2cccc3ncccc23)=NO1)B(O)O (stereo partly drawn) [Example 116, ((1R)-1-(5-benzyl-3-((quinolin-5-carboxamido)methyl)-4,5-dihydroisoxazol-5-carboxamido)-3-methylbutyl)boronic acid] | > 2500 | < 10
2 | Cc1nc(C(=O)NCC2=NOC(Cc3ccccc3)(C(=O)N[C@@H](CC(C)C)B(O)O)C2)cs1 (stereo partly drawn) [Example 117, ((1R)-1-(5-benzyl-3-((2-methylthiazol-4-carboxamido)methyl)-4,5-dihydroisoxazol-5-carboxamido)-3-methylbutyl)boronic acid] | > 1000 | < 10
3 | Cc1nc(C(=O)NCC2=NOC(Cc3ccccc3)(C(=O)N[C@@H](CC(C)C)B(O)O)C2)c(Cl)s1 (stereo partly drawn) [Example 119, ((1R)-1-(5-benzyl-3-((5-chloro-2-methylthiazol-4-carboxamido)methyl)-4,5-dihydroisoxazol-5-carboxamido)-3-methylbutyl)boronic acid] | > 1000 | < 10
4 | CC(C)C[C@H](NC(=O)C1(Cc2ccccc2)CC(CNC(=O)c2c[nH]c3ccccc23)=NO1)B(O)O (stereo partly drawn) [Example 124, ((1R)-1-(3-((1H-indol-3-carboxamido)methyl)-5-benzyl-4,5-dihydroisoxazol-5-carboxamido)-3-methylbutyl)boronic acid] | > 500 | < 10
5 | Cc1cccc(CC2(C(=O)N[C@@H](CC(C)C)B(O)O)CC(CNC(=O)c3nccc4ccccc34)=NO2)c1 (stereo partly drawn) [Example 125, ((1R)-1-(3-((isoquinolin-1-carboxamido)methyl)-5-(3-methylbenzyl)-4,5-dihydroisoxazol-5-carboxamido)-3-methylbutyl)boronic acid] | > 500 | < 10
6 | CC(C)C[C@H](NC(=O)C1(COc2ccccc2)CC(CNC(=O)c2nccc3ccccc23)=NO1)B(O)O (stereo partly drawn) [Example 126, ((1R)-1-(3-((isoquinolin-1-carboxamido)methyl)-5-(phenoxymethyl)-4,5-dihydroisoxazol-5-carboxamido)-3-methylbutyl)boronic acid] | > 500 | < 10
7 | CC(C)C[C@H](NC(=O)C1(Cc2ccccc2)CC(CNC(=O)c2cccc3[nH]ccc23)=NO1)B(O)O (stereo partly drawn) [Example 127, ((1R)-1-(3-((1H-indol-4-carboxamido)methyl)-5-benzyl-4,5-dihydroisoxazol-5-carboxamido)-3-methylbutyl)boronic acid] | > 500 | < 10
8 | CC(C)C[C@H](NC(=O)C1(Cc2ccccc2)CC(CNC(=O)c2ccc3c(ccn3C(C)C)c2)=NO1)B(O)O (stereo partly drawn) [Example 129, ((1R)-1-(5-benzyl-3-((1-isopropyl-1H-indol-5-carboxamido)methyl)-4,5-dihydroisoxazol-5-carboxamido)-3-methylbutyl)boronic acid] | > 250 | < 10
9 | Cc1nc(C)c(C(=O)NCC2=NOC(Cc3ccccc3)(C(=O)N[C@@H](CC(C)C)B(O)O)C2)s1 (stereo partly drawn) [Example 130, ((1R)-1-(5-benzyl-3-((2,4-dimethylthiazol-5-carboxamido)methyl)-4,5-dihydroisoxazol-5-carboxamido)-3-methylbutyl)boronic acid] | > 500 | < 10
10 | CC(C)C[C@H](NC(=O)C1(Cc2ccccc2)CC(CNC(=O)c2cccn3ccnc23)=NO1)B(O)O (stereo partly drawn) [Example 132, ((1R)-1-(5-benzyl-3-((imidazo[1,2-a]pyridin-8-carboxamido)methyl)-4,5-dihydroisoxazol-5-carboxamido)-3-methylbutyl)boronic acid] | > 250 | < 10
11 | Cc1nc(C)c(C(=O)NCC2=NOC(COc3ccccc3)(C(=O)N[C@@H](CC(C)C)B(O)O)C2)s1 (stereo partly drawn) [Example 141, ((1R)-1-(3-((2,4-dimethylthiazol-5-carboxamido)methyl)-5-(phenoxymethyl)-4,5-dihydroisoxazol-5-carboxamido)-3-methylbutyl)boronic acid] | > 500 | < 10
12 | CC(C)C[C@H](NC(=O)C1(Cc2ccccc2)CC(CNS(=O)(=O)c2cc(Cl)ccc2Cl)=NO1)B(O)O (stereo partly drawn) [Example 143, ((1R)-1-(5-benzyl-3-(((2,5-dichlorophenyl)sulfonamido)methyl)-4,5-dihydroisoxazol-5-carboxamido)-3-methylbutyl)boronic acid] | > 500 | < 10
13 | CC(C)C[C@H](NC(=O)C1(Cc2ccccc2)CC([C@@H](NC(=O)c2nccc3ccccc23)C(C)C)=NO1)B(O)O (stereo partly drawn) [Example 148, ((1R)-1-(5-benzyl-3-((S)-1-(isoquinolin-1-carboxamido)-2-methylpropyl)-4,5-dihydroisoxazol-5-carboxamido)-3-methylbutyl)boronic acid] | > 1000 | < 25
14 | CC(C)C[C@H](NC(=O)C1(Cc2ccccc2)CC([C@H](CC(C)C)NC(=O)c2nccc3ccccc23)=NO1)B(O)O (stereo partly drawn) [Example 152, ((1R)-1-(5-benzyl-3-((S)-1-(isoquinolin-1-carboxamido)-3-methylbutyl)-4,5-dihydroisoxazol-5-carboxamido)-3-methylbutyl)boronic acid] | > 1000 | < 10
15 | COC[C@H](NC(=O)c1nccc2ccccc12)C1=NOC(Cc2ccccc2)(C(=O)N[C@@H](CC(C)C)B(O)O)C1 (stereo partly drawn) [Example 153, ((1R)-1-(5-benzyl-3-((R)-1-(isoquinolin-1-carboxamido)-2-methoxyethyl)-4,5-dihydroisoxazol-5-carboxamido)-3-methylbutyl)boronic acid] | > 500 | < 10

Continued, values first:

Row | IC50 [1] [nM] | IC50 [2] [nM] | Compound
16 | > 1000 | < 10 | CC(C)C[C@H](NC(=O)C1(Cc2ccccc2)CC(CNC(=O)c2cccc3c2CCCC3)=NO1)B(O)O (stereo partly drawn) [Example 115, ((1R)-1-(5-benzyl-3-((5,6,7,8-tetrahydronaphthalen-1-carboxamido)methyl)-4,5-dihydroisoxazol-5-carboxamido)-3-methylbutyl)boronic acid]
17 | > 500 | < 10 | Cc1nc2ccccn2c1C(=O)NCC1=NOC(Cc2ccccc2)(C(=O)N[C@@H](CC(C)C)B(O)O)C1 (stereo partly drawn) [Example 133, ((1R)-1-(5-benzyl-3-((2-methylimidazo[1,2-a]pyridin-3-carboxamido)methyl)-4,5-dihydroisoxazol-5-carboxamido)-3-methylbutyl)boronic acid]
18 | > 500 | < 10 | CC(C)C[C@H](NC(=O)C1(Cc2ccccc2)CC(CNC(=O)c2cccc3c2ccn3C(C)C)=NO1)B(O)O (stereo partly drawn) [Example 134, ((1R)-1-(5-benzyl-3-((1-isopropyl-1H-indol-4-carboxamido)methyl)-4,5-dihydroisoxazol-5-carboxamido)-3-methylbutyl)boronic acid]
19 | > 500 | < 10 | CC(C)C[C@H](NC(=O)C1(Cc2ccccc2)CC(CNC(=O)c2cccc3c2ccn3C)=NO1)B(O)O (stereo partly drawn) [Example 138, ((1R)-1-(5-benzyl-3-((1-methyl-1H-indol-4-carboxamido)methyl)-4,5-dihydroisoxazol-5-carboxamido)-3-methylbutyl)boronic acid]
20 | > 2500 | < 10 | CC(C)C[C@H](NC(=O)C1(Cc2ccccc2)CC([C@H](C)NC(=O)c2nccc3ccccc23)=NO1)B(O)O (stereo partly drawn) [Example 145, ((1R)-1-(5-benzyl-3-((S)-1-(isoquinolin-1-carboxamido)ethyl)-4,5-dihydroisoxazol-5-carboxamido)-3-methylbutyl)boronic acid]
21 | > 250 | < 10 | Cc1cnc(C(=O)NCC2=NOC(Cc3ccccc3)(C(=O)N[C@@H](CC(C)C)B(O)O)C2)cn1 (stereo partly drawn) [Example 151, [(1R)-1-[[5-benzyl-3-[[(5-methylpyrazin-2-carbonyl)amino]methyl]-4H-1,2-oxazol-5-carbonyl]amino]-3-methyl-butyl]boronic acid]
22 | > 500 | < 10 | Cc1ccccc1CC1(C(=O)N[C@@H](CC(C)C)B(O)O)CC(CNC(=O)c2nccc3ccccc23)=NO1 (stereo partly drawn) [Example 154, ((1R)-1-(3-((isoquinolin-1-carboxamido)methyl)-5-(2-methylbenzyl)-4,5-dihydroisoxazol-5-carboxamido)-3-methylbutyl)boronic acid]
23 | > 500 | < 10 | Cc1cccc(C(=O)NCC2=NOC(Cc3ccccc3)(C(=O)N[C@@H](CC(C)C)B(O)O)C2)n1 (stereo partly drawn) [Example 160, ((1R)-1-(5-benzyl-3-((6-methylpicolinamido)methyl)-4,5-dihydroisoxazol-5-carboxamido)-3-methylbutyl)boronic acid]
24 | > 1000 | < 25 | CC(C)C[C@H](NC(=O)C1(CCc2ccccc2)CC(CNC(=O)c2nccc3ccccc23)=NO1)B(O)O (stereo partly drawn) [Example 162, ((1R)-1-(3-((isoquinolin-1-carboxamido)methyl)-5-penetyl-4,5-dihydroisoxazol-5-carboxamido)-3-methylbutyl)boronic acid]
